Reference: patent publication US10570179B2, “Substituted urea depsipeptide analogs as activators of the CLPP endopeptidase” (priority 2016, dated 2020)
Like-named read-outs stand apart in the source and are kept apart here. Numbered stars: 1 amine (or outer) side, 2 acyl side, 3 side chain; on linkers, the order of the positions; unused ones are H or OH. Bridge positions count the residues as written; N and C are the ends. Square brackets hold non-standard residues; d marks the D form. Peptide text beside a SMILES is read from it. * marks the point of attachment. ξ: configuration not given here. Piperazine(2S-CO,4-Me) = CN1CCN[C@H](C(=O)O)C1; Phe(3,5-F2) = N[C@@H](Cc1cc(F)cc(F)c1)C(=O)O; Phe(3,5-Me2) = Cc1cc(C)cc(C[C@H](N)C(=O)O)c1; NH(1-Me-indolin-5-yl) = CN1CCc2cc(N*)ccc21; Morpholine(3S-CO) = O=C(O)[C@@H]1COCCN1; Phe(3-Me) = Cc1cccc(C[C@H](N)C(=O)O)c1; NH(4-Cl-2-F-phenyl) = Fc1cc(Cl)ccc1N*; Pro(4R-Me) = C[C@H]1CN[C@H](C(=O)O)C1; Hyp = O=C(O)[C@@H]1C[C@@H](O)CN1; NH(4-Me-phenyl) = Cc1ccc(N*)cc1; ξNMeThr = CNC(C(=O)O)[C@@H](C)O; aThr = C[C@H](O)[C@H](N)C(=O)O; Pip = O=C(O)[C@@H]1CCCCN1; CO = O=C([*:1])[*:2]

Columns and labels:
[1] = Cytotoxicity assay (CellTiter-Glo cell viability); type: cell-based; details: African green monkey
Procedure: Cytotoxicity was determined by determining the effect of compounds on cell viability. Vero (kidney epithelial cells; ATCC CCL-81) monolayers were trypsinized and 5000 cells/well were seeded (10-15% confluency) into white-wall, flat bottom 96 well microwell plates (Corning) using enriched Dulbecco's Modified Eagle's Medium (Hyclone: DMEM/High Glucose) containing 10% Fetal Bovine Serum (ATCC-30-2020). Plates were incubated overnight at 37° C. in the presence of 5% CO2. Drug-free media was then replaced with media containing serial dilutions of test compound or DMSO carrier. After an additional 72 hours of incubation, viability was indirectly measured using the CellTiter-Glo® Luminescent Cell Viability (Promega) assay. Assay plates were read at peak emission wavelength of 560 nm using a EnVision® Multilabel Plate Reader (Perkin Elmer) or PHERAstar FS Multilabel reader (BMG, Cary, N.C.). The concentration of test compounds that inhibited growth by 50% (IC50 value) was computed using nonlinear regression based fitting of inhibition curves using log [inhibitor] vs. response-variable slope (four parameters)—symmetrical equation, in GraphPad Prism version 6 [GraphPad Software, La Jolla, Calif. USA, www.graphpad.com]. For each experiment, compounds were tested in duplicate. IC50 values presented are the range of two biologically independent experiments.

Plasma pharmacokinetics = type: in vivo, male BALB/c mice; details: for Vd: read-out: Vss
[2] = Vero cells, 72 hours, read-out: Cytotoxicity IC50
[3] = male, BALB/c, mouse, in vivo, iv
[4] = male, BALB/c, mouse, in vivo, iv, 10 mg/kg, Route i.v.

## C[C@@H]1C[C@H]2C(=O)O[C@@H](C)[C@H](NC(=O)[C@H](Cc3cc(F)cc(F)c3)NC(=O)Nc3ccc4c(c3)CCN4C)C(=O)N3CCC[C@H]3C(=O)N3CCOC[C@H]3C(=O)N[C@@H](C)C(=O)N2C1 [Compound 32] ({NH(1-Me-indolin-5-yl)-CO}-[Phe(3,5-F2)][aThr]P[Morpholine(3S-CO)]A[Pro(4R-Me)]; ester 2-C)
[1]; [2]
  IC50 at 72 h: 2.87 µM

## Cc1cccc(C[C@H](NC(=O)Nc2ccc(Cl)cc2F)C(=O)N[C@H]2COC(=O)[C@@H]3C[C@@H](C)CN3C(=O)[C@H](C)NC(=O)[C@@H]3CCCCN3C(=O)[C@@H]3C[C@H](N)CN3C2=O)c1 [Compound 12, (S)—N-((2R,6S,8AS,14AS,16S,20S,23AS)-16-AMINO-2,6-DIMETHYL-5,8,14,19,23-PENTAOXOOCTADECAHYDRO-1H,5H,14H,19H-PYRIDO[2,1-I]DIPYRROLO[2,1-C:2′,1′-L][1]OXA[4,7,10,13]TETRAAZACYCLOHEXADECIN-20-YL)-2-(3-(4-CHLORO-2-FLUOROPHENYL)UREIDO)-3-(M-TOLYL)PROPANAMIDE]
[1]
  IC50 at 72 h: > 50 µM

## Cc1cccc(C[C@H](NC(=O)Nc2ccc(Cl)cc2F)C(=O)N[C@H]2COC(=O)[C@@H]3C[C@@H](C)CN3C(=O)[C@H](C)NC(=O)[C@@H]3CCCCN3C(=O)[C@@H]3CCCN3C2=O)c1 [Compound 8, (S)-2-(3-(4-CHLORO-2-FLUOROPHENYL)UREIDO)-N-((2R,6S,8AS,14AS,20S,23AS)-2,6-DIMETHYL-5,8,14,19,23-PENTAOXOOCTADECAHYDRO-1H,5H,14H,19H-PYRIDO[2,1-I]DIPYRROLO[2,1-C:2′,1′-L][1]OXA[4,7,10,13]TETRAAZACYCLOHEXADECIN-20-YL)-3-(M-TOLYL)PROPANAMIDE]
[1]
  IC50 at 72 h: > 10 µM

## Cc1ccc(NC(=O)N[C@@H](Cc2cc(C)cc(C)c2)C(=O)N[C@@H]2C(=O)N3CCC[C@H]3C(=O)N3CCCC[C@H]3C(=O)N[C@@H](C)C(=O)N3C[C@H](C)C[C@H]3C(=O)O[C@H]2C)cc1 [Compound 2, (S)-3-(3,5-DIMETHYLPHENYL)-2-(3-(P-TOLYL)UREIDO)-N-((2R,6S,8AS,14AS,20S,21S,23AS)-2,6,21-TRIMETHYL-5,8,14,19,23-PENTAOXOOCTADECAHYDRO-1H,5H,14H,19H-PYRIDO[2,1-I]DIPYRROLO[2,1-C:2′,1′-L][1]OXA[4,7,10,13]TETRAAZACYCLOHEXADECIN-20-YL)PROPANAMIDE] ({NH(4-Me-phenyl)-CO}-[Phe(3,5-Me2)][aThr]P[Pip]A[Pro(4R-Me)]; ester 2-C)
[1]; [2]
  IC50 at 72 h: > 100 µM

## Cc1cccc(C[C@H](NC(=O)Nc2ccc(Cl)cc2F)C(=O)N[C@@H]2C(=O)N3C[C@H](O)C[C@H]3C(=O)N3CCCC[C@H]3C(=O)N[C@@H](C)C(=O)N3C[C@H](C)C[C@H]3C(=O)O[C@H]2C)c1 [Compound 6, (S)-2-(3-(4-CHLORO-2-FLUOROPHENYL)UREIDO)-N-((2R,6S,8AS,14AS,16R,20S,21S,23AS)-16-HYDROXY-2,6,21-TRIMETHYL-5,8,14,19,23-PENTAOXOOCTADECAHYDRO-1H,5H,14H,19H-PYRIDO[2,1-I]DIPYRROLO[2,1-C:2′,1′-L][1]OXA[4,7,10,13]TETRAAZACYCLOHEXADECIN-20-YL)-3-(M-TOLYL)PROPANAMIDE] ({NH(4-Cl-2-F-phenyl)-CO}-[Phe(3-Me)][aThr][Hyp][Pip]A[Pro(4R-Me)]; ester 2-C)
Plasma pharmacokinetics; [3]
  AUC(0-inf): 11900 ng·h/mL
  AUC(0-t): 11500 ng·h/mL
  C^0: 34296.43 ng/mL
  clearance: 14 mL/min/kg
  half-life: 169 min
Plasma pharmacokinetics; [4]
  Vd: 1.02 L/kg
[1]
  IC50 at 72 h: 50.5 ± 3.8 µM

## Cc1cc(C)cc(C[C@H](NC(=O)Nc2ccc(Cl)cc2F)C(=O)N[C@@H]2C(=O)N3CCC[C@H]3C(=O)N3CCCC[C@H]3C(=O)N[C@@H](C)C(=O)N3C[C@H](C)C[C@H]3C(=O)O[C@H]2C)c1 [Compound 4, (S)-2-(3-(4-CHLORO-2-FLUOROPHENYL)UREIDO)-3-(3,5-DIMETHYLPHENYL)-N-((2R,6S,8AS,14AS,20S,21S,23AS)-2,6,21-TRIMETHYL-5,8,14,19,23-PENTAOXOOCTADECAHYDRO-1H,5H,14H,19H-PYRIDO[2,1-I]DIPYRROLO[2,1-C:2′,1′-L][1]OXA[4,7,10,13]TETRAAZACYCLOHEXADECIN-20-YL)PROPANAMIDE] ({NH(4-Cl-2-F-phenyl)-CO}-[Phe(3,5-Me2)][aThr]P[Pip]A[Pro(4R-Me)]; ester 2-C)
[1]
  IC50 at 72 h: 11 ± 1.9 µM

## Cc1cccc(C[C@H](NC(=O)Nc2ccc(Cl)cc2F)C(=O)N[C@H]2COC(=O)[C@@H]3C[C@@H](C)CN3C(=O)[C@H](C)NC(=O)[C@@H]3CCCCN3C(=O)[C@@H]3C[C@@H](O)CN3C2=O)c1 [Compound 10]
[1]
  IC50 at 72 h: > 50 µM

## Cc1ccc(NC(=O)N[C@@H](Cc2cccc(C)c2)C(=O)N[C@@H]2C(=O)N3CCC[C@H]3C(=O)N3CCCC[C@H]3C(=O)N[C@@H](C)C(=O)N3C[C@H](C)C[C@H]3C(=O)O[C@H]2C)cc1 [Compound 1, (S)-3-(M-TOLYL)-2-(3-(P-TOLYL)UREIDO)-N-((2R,6S,8AS,14AS,20S,21S,23AS)-2,6,21-TRIMETHYL-5,8,14,19,23-PENTAOXOOCTADECAHYDRO-1H,5H,14H,19H-PYRIDO[2,1-I]DIPYRROLO[2,1-C:2′,1′-L][1]OXA[4,7,10,13]TETRAAZACYCLOHEXADECIN-20-YL)PROPANAMIDE] ({NH(4-Me-phenyl)-CO}-[Phe(3-Me)][aThr]P[Pip]A[Pro(4R-Me)]; ester 2-C)
Plasma pharmacokinetics; Route i.v.
  C^0: 26862.75 ng/mL
Plasma pharmacokinetics; male, BALB/c, mouse, in vivo, iv, 10 mg/kg, Route i.v., read-out: AUCinf
  AUC(0-inf): 7620 ng·h/mL
Plasma pharmacokinetics; male, BALB/c, mouse, in vivo, iv, 10 mg/kg, Route i.v., read-out: AUClast
  AUC(0-t): 7590 ng·h/mL
Plasma pharmacokinetics; male, BALB/c, mouse, in vivo, iv, 10 mg/kg, Route i.v., read-out: CL
  clearance: 21.9 mL/min/kg
Plasma pharmacokinetics; male, BALB/c, mouse, in vivo, iv, 10 mg/kg, Route i.v., read-out: T1/2 (converted)
  half-life: 29.4 min
Plasma pharmacokinetics; [4]
  Vd: 0.74 L/kg
[1]; [2]
  IC50 at 72 h: 1.59 ± 0.08 µM

## Cc1cccc(C[C@H](NC(=O)Nc2ccc(Cl)cc2F)C(=O)N[C@@H]2C(=O)N3CCC[C@H]3C(=O)N(C)C([C@@H](C)O)C(=O)N[C@@H](C)C(=O)N3C[C@H](C)C[C@H]3C(=O)O[C@H]2C)c1 (stereo partly drawn) [Compound 5] ({NH(4-Cl-2-F-phenyl)-CO}-[Phe(3-Me)][aThr]P[ξNMeThr]A[Pro(4R-Me)]; ester 2-C)
[1]
  IC50 at 72 h: > 10 µM

## Cc1cccc(C[C@H](NC(=O)Nc2ccc(Cl)cc2F)C(=O)N[C@@H]2C(=O)N3CCC[C@H]3C(=O)N3CCN(C)C[C@H]3C(=O)N[C@@H](C)C(=O)N3C[C@H](C)C[C@H]3C(=O)O[C@H]2C)c1 [Compound 11, (S)-2-(3-(4-CHLORO-2-FLUOROPHENYL)UREIDO)-N-((6AS,12S,13S,15AS,17R,21S,23AS)-2,13,17,21-TETRAMETHYL-6,11,15,20,23-PENTAOXOOCTADECAHYDRO-2H,6H,11H,15H-PYRAZINO[2,1-I]DIPYRROLO[2,1-C:2′,1′-L][1]OXA[4,7,10,13]TETRAAZACYCLOHEXADECIN-12-YL)-3-(M-TOLYL)PROPANAMIDE] ({NH(4-Cl-2-F-phenyl)-CO}-[Phe(3-Me)][aThr]P[Piperazine(2S-CO,4-Me)]A[Pro(4R-Me)]; ester 2-C)
Plasma pharmacokinetics; [3]
  AUC(0-inf): 5040 ng·h/mL
  AUC(0-t): 5000 ng·h/mL
  C^0: 9127.72 ng/mL
  clearance: 33.1 mL/min/kg
  half-life: 81 min
Plasma pharmacokinetics; [4]
  Vd: 2.28 L/kg
[1]
  IC50 at 72 h: > 10 µM

## C[C@@H]1C[C@H]2C(=O)OC[C@H](NC(=O)[C@H](Cc3cc(F)cc(F)c3)NC(=O)Nc3ccc(Cl)cc3F)C(=O)N3CCC[C@H]3C(=O)N3CCN(C)C[C@H]3C(=O)N[C@@H](C)C(=O)N2C1 [Compound 34] ({NH(4-Cl-2-F-phenyl)-CO}-[Phe(3,5-F2)]SP[Piperazine(2S-CO,4-Me)]A[Pro(4R-Me)]; ester 2-C)
[1]
  IC50 at 72 h: > 50 µM
